Assay results taken from US20240024273A1, “TOPICAL ADMINISTRATION OF 2-(DIETHYLAMINO)ETHYL 2-(4-ISOBUTYLPHENYL)PROPRIONATE FOR TREATMENT OF DISEASES” (TECHFIELDS PHARMA CO., LTD., priority 2020, published 2024).

Assay: 14-day repeated dermal dose toxicity study
Design: species or system Rats
Settings: rat, in vivo, topical or ocular; 14-day dermal

SMILES: CCN(CC)CCOC(=O)C(C)c1ccc(CC(C)C)cc1 (stereo not shown) [2-(diethylamino)ethyl 2-(4-isobutylphenyl)propionate]
- NOAEL at 14 days: 250 mg/kg/day
